Data taken from PMC9264488, “Potentiation of endocannabinoids and other lipid amides prevents hyperalgesia and inflammation in a pre-clinical model of migraine” (The Journal of Headache and Pain, 2022).
Where two headings read alike, the source gives them in different places.

How the values were obtained:
[1] = target: T1, fatty acid amide hydrolase (r-FAAH) (Rattus norvegicus, UniProt P97612); assay: biochemical
[2] = target: T1, fatty acid amide hydrolase (r-FAAH)

T1 sequence (P97612 whole entry): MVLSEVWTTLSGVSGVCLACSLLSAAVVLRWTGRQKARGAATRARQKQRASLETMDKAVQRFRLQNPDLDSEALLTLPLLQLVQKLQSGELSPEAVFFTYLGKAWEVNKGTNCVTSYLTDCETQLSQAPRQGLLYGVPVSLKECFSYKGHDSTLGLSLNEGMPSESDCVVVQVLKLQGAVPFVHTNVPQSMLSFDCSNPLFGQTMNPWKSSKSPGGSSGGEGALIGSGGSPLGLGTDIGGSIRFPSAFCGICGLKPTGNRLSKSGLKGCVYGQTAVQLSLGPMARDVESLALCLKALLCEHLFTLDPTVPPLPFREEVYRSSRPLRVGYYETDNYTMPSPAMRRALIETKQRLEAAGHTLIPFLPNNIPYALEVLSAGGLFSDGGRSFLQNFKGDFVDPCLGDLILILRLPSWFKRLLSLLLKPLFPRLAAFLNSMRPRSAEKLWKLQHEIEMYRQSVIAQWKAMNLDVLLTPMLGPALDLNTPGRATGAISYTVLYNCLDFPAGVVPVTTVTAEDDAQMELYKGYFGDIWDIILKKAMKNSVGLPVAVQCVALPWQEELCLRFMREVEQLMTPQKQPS

Compound | IC50 [1] [nM] | IC50 [2] [nM]
NC(=O)c1cccc(-c2cc(OC(=O)NC3CCCCC3)ccc2OC(F)F)c1 [ARN14280, [3-(3-carbamoylphenyl)-4-(difluoromethoxy)phenyl] N-cyclohexylcarbamate] | 1.5 ± 0.3 | –
CNC(=O)c1cccc(-c2cc(OC(=O)NC3CCCCC3)ccc2F)c1 [ARN14633, [4-fluoro-3-[3-(methylcarbamoyl)phenyl]phenyl] N-cyclohexylcarbamate] | – | 1.4 ± 0.3
